A short description of the series: T1 relaxation of 13C1-pyruvate in human full blood. As to conditions: human full blood at 37° C. In kind it is physicochemical.

On to `CC(=O)C(=O)O` [13C1-pyruvate], for which the T1 relaxation result is given as “about 42 s”.

The values are drawn from patent publication US20110020235A1, “MR METHODS OF GRADING A TUMOR USING AN IMAGING MEDIUM THAT COMPRISES HYPERPOLARISED 13C-PYRUVATE” (priority 2007, published 2011).
